The results in this text go back to ChEMBL document CHEMBL1201862, “PubChem BioAssay data set” (2004).

Assay in all cases: NCI anticancer screen, dose series, 48 h
Experiment [1] has as its system Malme-3M.
In experiment [2] the test system is K562.
Experiment [3] relates to A498.
The test system of experiment [4] is HCT-15.
The test system of experiment [5] is SF-268.
The subject of experiment [6] is HT-29.
Experiment [7] relates to SF-539.
For experiment [8], the system named is MDA-MB-231.
In experiment [9] the test system is SN12C.
Experiment [10] relates to A549.
The subject of experiment [11] is DU-145.
Experiment [12] concerns SK-MEL-2.
For experiment [13], the system named is OVCAR-8.
The test system of experiment [14] is HCT-116.
The subject of experiment [15] is SK-OV-3.
For experiment [16], the system named is MDA-MB-435.
The subject of experiment [17] is MOLT-4.
Experiment [18] concerns SW-620.
In experiment [19] the test system is RXF 393.
The test system of experiment [20] is OVCAR-3.

Molecules are shown by their SMILES.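 96-well plates; 48 h exposure; 5 concentrations. Endpoints by linear interpolation between flanking doses. Not reached: highest tested concentration assigned. GI50 marks 50% less growth.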 The source made the active and inactive calls. Rule as the data show it: active = GI50 up to about 1.1 µM and inactive = higher.

Regarding `COCn1c(C)c(C)c2c(=O)oc(C)nc21`, the GI50 in experiment [1] is > 100 µM (inactive); in experiment [2], > 100 µM (inactive); in experiment [3], > 100 µM (inactive); in experiment [4] it was more than 100 µM; in experiment [5], > 100 µM (inactive); in experiment [6] it was > 100 µM (inactive). The GI50 in [7], in experiment [8], in experiment [9], in [10], in experiment [11] and in experiment [12] was > 100 µM (inactive) each time. Besides, the GI50 in [13], in [14], in [15], in experiment [16], in experiment [17] and in experiment [18] was > 100 µM (inactive) each time. The GI50 in [19] was > 100 µM (inactive).

As to `CC1=C(c2ccccc2)NC(=S)C(C)C(c2ccccc2)=N1` (stereo not given), the GI50 in experiment [1] is 32.7 µM (inactive); in experiment [2] it was 10.6 µM (inactive); in experiment [3], 27.2 µM (inactive); in [4] it was 25.8 µM; in experiment [5] it was 27.5 µM (inactive); in experiment [6] it was 32.4 µM (inactive). Moreover, the GI50 in experiment [7] was 16.3 µM (inactive); in experiment [8] it was > 100 µM (inactive); in [9] it was 56.2 µM (inactive); in [10], 40.1 µM (inactive); in experiment [11], 40.4 µM (inactive); in experiment [13], 83.4 µM (inactive). Also, the GI50 is 27.5 µM (inactive) in experiment [14]; > 100 µM (inactive) in experiment [15]; 18.7 µM (inactive) in experiment [16]; 15.2 µM (inactive) in experiment [17]; 44.1 µM (inactive) in experiment [18]; 21.7 µM (inactive) in [19].

Take `CC(C)(C)OC(=O)NCC(O)CNC(=O)OC(C)(C)C`: the GI50 in [1] was > 100 µM (inactive); in [2], > 100 µM (inactive); in experiment [3], > 100 µM (inactive); in experiment [4], more than 100 µM; in [5], > 100 µM (inactive); in [7] it was > 100 µM (inactive). Further, the GI50 in experiment [20], in experiment [8], in experiment [9], in [10], in experiment [11] and in experiment [13] was > 100 µM (inactive) in each case. For the same molecule, the GI50 in experiment [14], in experiment [15], in experiment [16], in experiment [17], in experiment [18] and in experiment [19] was > 100 µM (inactive) each time.

On to `N#C/C(N)=C(\C#N)NC(=O)C(=O)N/C(C#N)=C(\N)C#N`, for which the GI50 in experiment [1] is 59.6 µM (inactive); in [2], > 100 µM (inactive); in experiment [3], > 100 µM (inactive); in experiment [4] it was more than 100 µM; in experiment [5] it was > 100 µM (inactive); in experiment [6], > 100 µM (inactive). The GI50 in experiment [7] is > 100 µM (inactive); in experiment [20], 13 µM (inactive); in experiment [8] it was > 100 µM (inactive); in experiment [9], > 100 µM (inactive); in experiment [10], > 100 µM (inactive); in [11], > 100 µM (inactive). Further, the GI50 in experiment [12] is > 100 µM (inactive); in experiment [13], > 100 µM (inactive); in experiment [14], > 100 µM (inactive); in experiment [16] it was > 100 µM (inactive); in [17] it was 63.1 µM (inactive); in experiment [18], > 100 µM (inactive). Moreover, in experiment [19], the GI50 is 9.38 µM (inactive).

`Clc1ccccc1/C=C/c1ccnc2ccccc12`: the GI50 in [1] is 19.5 µM (inactive); in [2], 15.9 µM (inactive); in [3] it was 18.8 µM (inactive); in [4] it was 13.9 µM; in experiment [5] it was 18.9 µM (inactive); in [6] it was 16 µM (inactive). The GI50 in experiment [7] was 18.4 µM (inactive); in experiment [20] it was 14.5 µM (inactive); in [8], 22.9 µM (inactive); in experiment [9], 16.4 µM (inactive); in experiment [10] it was 16.2 µM (inactive); in experiment [11], 15.7 µM (inactive). Also, the GI50 in [12] was 16.6 µM (inactive); in experiment [13], 18.3 µM (inactive); in experiment [14] it was 15.7 µM (inactive); in experiment [15] it was 18.5 µM (inactive); in experiment [16], 15.8 µM (inactive); in [18] it was 18.4 µM (inactive). The GI50 in [19] is 16.5 µM (inactive).

For the molecule `COc1ccc(OC)c2c1C(=O)C(O)=C(Cl)C2=O`, the GI50 was > 100 µM (inactive) in experiment [1]; > 100 µM (inactive) in experiment [2]; > 100 µM (inactive) in experiment [3]; more than 100 µM in experiment [4]; > 100 µM (inactive) in experiment [5]; > 100 µM (inactive) in experiment [6]. The GI50 in [7], in experiment [20], in experiment [8], in [10], in experiment [11] and in experiment [12] was > 100 µM (inactive) throughout. Besides, the GI50 in [13], in experiment [14], in experiment [15], in [16], in [17] and in experiment [18] was > 100 µM (inactive) each time. For the same molecule, the GI50 in experiment [19] was > 100 µM (inactive).

Consider `OC(CCN1CCN(CCOC(c2ccccc2)c2ccccc2)CC1)c1ccccc1` (stereo not given), for which the GI50 in [1] was 17.5 µM (inactive); in experiment [3], 2.4 µM (inactive); in experiment [4], 18.5 µM; in [5], 22.8 µM (inactive); in experiment [6], 15.9 µM (inactive); in [7] it was 20.1 µM (inactive). The GI50 in experiment [20] is 25.6 µM (inactive); in experiment [8] it was 15.9 µM (inactive); in experiment [9] it was 29.1 µM (inactive); in [10] it was 44.6 µM (inactive); in [11] it was 39.7 µM (inactive); in experiment [12] it was 15.8 µM (inactive). In addition, the GI50 in experiment [13] was 17.7 µM (inactive); in [14] it was 17.5 µM (inactive); in experiment [15], 35.8 µM (inactive); in [16] it was 18.5 µM (inactive); in experiment [18], 31.1 µM (inactive); in [19], 19.9 µM (inactive).

As to `COC(=O)[C@H](Cc1ccccc1)NC(=O)N(CCC#N)CCCCN(CCC#N)C(=O)N[C@@H](Cc1ccccc1)C(=O)OC`, the GI50 in experiment [1] is > 100 µM (inactive); in experiment [2], > 100 µM (inactive); in experiment [3] it was > 100 µM (inactive); in experiment [4], more than 100 µM; in experiment [5], > 100 µM (inactive); in [20], > 100 µM (inactive). Also, the GI50 in experiment [8], in [9], in experiment [10], in [11], in experiment [12] and in experiment [13] was > 100 µM (inactive) throughout. For the same molecule, the GI50 in experiment [14] is > 100 µM (inactive); in [15], > 100 µM (inactive); in [16], > 100 µM (inactive); in [17] it was > 100 µM (inactive); in experiment [18], > 100 µM (inactive); in experiment [19], > 58.1 µM (inactive).

`C=CCN1C(=O)CC(=O)N(NC2=NNC3(C(=O)N2)c2ccccc2-c2ccccc23)C1=S`: the GI50 in experiment [1] is 38 µM (inactive); in [2], 31.5 µM (inactive); in experiment [3], 34.8 µM (inactive); in experiment [4] it was 35.7 µM; in [5] it was 51.3 µM (inactive); in experiment [6], 37.9 µM (inactive). The GI50 is 59.4 µM (inactive) in [7]; 28.4 µM (inactive) in experiment [20]; > 100 µM (inactive) in experiment [8]; 37.2 µM (inactive) in experiment [9]; 34.2 µM (inactive) in [10]; 44.5 µM (inactive) in [11]. The GI50 in experiment [12] is 25.2 µM (inactive); in experiment [13], 29.2 µM (inactive); in [14], 28.4 µM (inactive); in experiment [15] it was 42.2 µM (inactive); in experiment [16], 44.5 µM (inactive); in experiment [18], 38.5 µM (inactive). Further, in experiment [19], the GI50 is 27.7 µM (inactive).

Consider `CC(=O)c1cnc2oc3ccc(O)cc3c2c1-c1ccccc1`, for which the GI50 in experiment [1] was 15.5 µM (inactive); in experiment [2], 41.6 µM (inactive); in experiment [3], 17.5 µM (inactive); in [4], 58.1 µM; in experiment [6] it was 95.5 µM (inactive); in [7], 15 µM (inactive). For the same molecule, the GI50 in experiment [20] is 17.3 µM (inactive); in experiment [8] it was 25.2 µM (inactive); in experiment [9], 44.4 µM (inactive); in experiment [10], 47.1 µM (inactive); in [11] it was 32.1 µM (inactive); in [12] it was 22.6 µM (inactive). Besides, the GI50 in [13] is 29.4 µM (inactive); in experiment [14], 57.1 µM (inactive); in experiment [15], 14 µM (inactive); in experiment [16] it was 64.9 µM (inactive); in experiment [17], 19.2 µM (inactive); in [18], > 100 µM (inactive). In addition, the GI50 in experiment [19] is 25.3 µM (inactive).

For the molecule `CN(/N=C/c1ccc(OCc2cccc(COc3ccc(C=O)cc3)n2)cc1)c1cnn(-c2ccc(Cl)cc2Cl)c(=O)c1Cl`, the GI50 is 84.1 µM (inactive) in experiment [1]; > 100 µM (inactive) in experiment [2]; 48.5 µM (inactive) in [3]; more than 100 µM in experiment [4]; 56 µM (inactive) in experiment [5]; > 100 µM (inactive) in experiment [6]. Also, the GI50 is 12.5 µM (inactive) in experiment [7]; > 100 µM (inactive) in experiment [20]; 20.7 µM (inactive) in [8]; > 100 µM (inactive) in experiment [9]; > 100 µM (inactive) in experiment [10]; > 100 µM (inactive) in [11]. Besides, the GI50 was 33 µM (inactive) in [12]; > 100 µM (inactive) in [13]; > 100 µM (inactive) in experiment [14]; > 100 µM (inactive) in [16]; > 100 µM (inactive) in [17]; > 100 µM (inactive) in experiment [18]. Further, the GI50 in experiment [19] was 21.5 µM (inactive).
